Reference: ChEMBL document CHEMBL2176897, “Synthesis and biological evaluation (in vitro and in vivo) of cyclic arginine-glycine-aspartate (RGD) peptidomimetic-paclitaxel conjugates targeting integrin αVβ3” (J Med Chem, 2012)
Values belong to the molecule of their own block, whether it stands above or below them. Active and inactive are the calls of the source. No cut-off for these calls is given here.

What was measured:
Integrin alpha-V/beta-3 = Integrin alpha-V/beta-3 (Homo sapiens, UniProt P05106+P06756); assay: Competitive inhibition of biotinylated vitronectin to integrin alphaVbeta3 receptor after 3 hrs by microplate reader analysis; format: protein-complex assay
IGROV-1 [1] = assay: Induction of abberant mitosis in cisplatin-resistant human IGROV1/Pt1 cells overexpressing integrin alphaVbeta3 receptors xenografted in athymic Swiss mouse at 30 mg/kg, iv measured 24 hrs post fourth treatment by hematoxylin and eosin staining; format: functional, organism-based; design: dose 30 mg/kg
IGROV-1 [2] = assay: Induction of abberant mitosis in cisplatin-resistant human IGROV1/Pt1 cells overexpressing integrin alphaVbeta3 receptors xenografted in athymic Swiss mouse at 30 mg/kg, iv measured 24 hrs post second treatment by hematoxylin and eosin staining; format: functional, organism-based; design: dose 30 mg/kg
Mus musculus [3] = assay: Toxicity in athymic Swiss mouse xenografted with cisplatin-resistant human IGROV1/Pt1 cells overexpressing integrin alphaVbeta3 receptors assessed as body weight loss at 30 mg/kg, iv administered every 4 days for 4 times; format: organism-based, IGROV-1; design: dose 30 mg/kg, route intravenous; conditions: in vivo, 96 h
[4] = Antitumor activity against cisplatin-resistant human IGROV1/Pt1 cells overexpressing integrin alphaVbeta3 receptors xenografted in athymic Swiss mouse assessed as tumor killing at 30 mg/kg, iv administered every 4 days for 4 times; format: functional, IGROV-1
IGROV-1 [5] = assay: Antitumor activity against cisplatin-resistant human IGROV1/Pt1 cells overexpressing integrin alphaVbeta3 receptors xenografted in athymic Swiss mouse assessed as absence of disease at 30 mg/kg, iv administered every 4 days for 4 times measured up to 10 days; format: functional, organism-based; design: dose 30 mg/kg
[6] = Antitumor activity against cisplatin-resistant human IGROV1/Pt1 cells overexpressing integrin alphaVbeta3 receptors xenografted in athymic Swiss mouse assessed as tumor volume inhibition at 30 mg/kg, iv administered every 4 days for 4 times measured after 10 days relative to control; format: functional; conditions: IGROV-1
[7] = Cytostatic activity against human dermal fibroblasts assessed as growth inhibition at 64 to 1000 nM after 72 hrs by coulter counter analysis; conditions: skin fibroblast, 1 µM
MIA PaCa-2 = assay: Cytotoxicity against human MIAPaCa2 cells after 72 hrs by coulter counter analysis; format: functional, cell-based; conditions: MIA PaCa-2, 72 h
PANC-1 = assay: Cytotoxicity against human PANC1 cells after 72 hrs by coulter counter analysis; format: functional, cell-based; conditions: PANC-1, 72 h
SK-OV-3 = assay: Cytotoxicity against human SKOV3 cells after 72 hrs by coulter counter analysis; format: functional, cell-based; conditions: SK-OV-3, 72 h
U2OS = assay: Cytotoxicity against human U2OS cells after 72 hrs by coulter counter analysis; format: functional, cell-based
IGROV-1 [8] = assay: Cytotoxicity against cisplatin-resistant human IGROV1/Pt1 cells after 72 hrs by coulter counter analysis; format: functional, cell-based; conditions: IGROV-1, 72 h
IGROV-1 [9] = assay: Cytotoxicity against human IGROV1 cells after 72 hrs by coulter counter analysis; format: functional, cell-based; conditions: IGROV-1, 72 h
[10] = Selectivity ratio of IC50 for integrin alphaVbeta5 receptor to IC50 for integrin alphaVbeta3 receptor
Integrin alpha-V/beta-5 = Integrin alpha-V/beta-5 (Homo sapiens, UniProt P06756+P18084); assay: Competitive inhibition of biotinylated vitronectin to integrin alphaVbeta5 receptor after 3 hrs by microplate reader analysis; format: protein-complex assay
Mus musculus [11] = assay: Toxicity in athymic Swiss mouse xenografted with cisplatin-resistant human IGROV1/Pt1 cells overexpressing integrin alphaVbeta3 receptors assessed as body weight loss at 15 mg/kg, iv administered every 4 days for 4 times; format: organism-based, IGROV-1; design: dose 15 mg/kg, route intravenous; conditions: in vivo, 96 h
[12] = Antitumor activity against cisplatin-resistant human IGROV1/Pt1 cells overexpressing integrin alphaVbeta3 receptors xenografted in athymic Swiss mouse assessed as tumor killing at 15 mg/kg, iv administered every 4 days for 4 times; format: functional, IGROV-1
IGROV-1 [13] = assay: Antitumor activity against cisplatin-resistant human IGROV1/Pt1 cells overexpressing integrin alphaVbeta3 receptors xenografted in athymic Swiss mouse assessed as disappearance of tumor lasting at 15 mg/kg, iv administered every 4 days for 4 times measured up to 10 days; format: functional, organism-based; design: dose 15 mg/kg
[14] = Antitumor activity against cisplatin-resistant human IGROV1/Pt1 cells overexpressing integrin alphaVbeta3 receptors xenografted in athymic Swiss mouse assessed as tumor volume inhibition at 15 mg/kg, iv administered every 4 days for 4 times measured after 10 days relative to control; format: functional; conditions: IGROV-1
[15] = Half life in human plasma at 10 uM by HPLC analysis; format: ADME, cell-free
[16] = Half life in mouse plasma at 10 uM by HPLC analysis; format: ADME, cell-free
[17] = Solubility of the compound in 0.9% NaCl in H2O/Cremophor EL/ethanol 90:5:5 v/v at 1.28 mM measured for 1 week by HPLC analysis; format: physicochemical; conditions: 168 h, 1280 µM
[18] = Solubility of the compound in 0.9% NaCl in H2O/Cremophor EL/ethanol 90:5:5 v/v at 1.92 mM after 2 days by HPLC analysis; format: physicochemical; conditions: 48 h, 1920 µM
[19] = Stability of the compound in 0.9% NaCl in H2O/Cremophor EL/ethanol 90:5:5 v/v at 1.28 mM measured for 1 week by HPLC analysis; format: physicochemical; conditions: 168 h, 1280 µM
[20] = Stability of the compound in 0.9% NaCl in H2O/Cremophor EL/ethanol 90:5:5 v/v at 1.92 mM after 2 days by HPLC analysis; format: physicochemical; conditions: 48 h, 1920 µM
[21] = Half life of the compound in glucose phosphate buffer at pH 7; format: physicochemical

SMILES: NC(N)=NCCC[C@@H]1NC(=O)C[C@@H]2NC(=O)[C@H](CNC(=O)[C@H](CC(=O)O)NC(=O)CNC1=O)N(Cc1ccccc1)C2=O
IC50 (Integrin alpha-V/beta-3): 3.9 nM

SMILES: CC(=O)O[C@H]1C(=O)[C@@]2(C)[C@H]([C@H](OC(=O)c3ccccc3)[C@]3(O)C[C@H](OC(=O)[C@H](O)[C@@H](NC(=O)c4ccccc4)c4ccccc4)C(C)=C1C3(C)C)[C@]1(OC(C)=O)CO[C@@H]1C[C@@H]2O [PACLITAXEL]
Activity (IGROV-1 [1]): inactive
Activity (IGROV-1 [2]): Active
Activity (Mus musculus [3]): 4%
LCK [4]: 0.7
Activity (IGROV-1 [5]): Active
inhibition in vivo at 30 mg/kg [6]: 76%
growth inhibition (GI) [7]: Non-toxic
IC50 (MIA PaCa-2): 7.2 nM
IC50 (PANC-1): 5.2 nM
IC50 (SK-OV-3): 2.7 nM
IC50 (U2OS): 3.4 nM
IC50 (IGROV-1 [8]): 2.2 nM
IC50 (IGROV-1 [9]): 23 nM

Ratio IC50 [10]: 20
IC50 (Integrin alpha-V/beta-5): 79 nM
IC50 (Integrin alpha-V/beta-3): 2.1 nM
SMILES: N=C(N)NCCC[C@@H]1NC(=O)C[C@@H]2C(=O)N[C@@H](CNC(=O)[C@H](CC(=O)O)NC(=O)CNC1=O)C(=O)N2Cc1ccccc1

Ratio IC50 [10]: 20
IC50 (Integrin alpha-V/beta-5): 216 nM
IC50 (Integrin alpha-V/beta-3): 7.6 nM
SMILES: N=C(N)NCCC[C@@H]1NC(=O)C[C@H]2C(=O)N[C@H](CNC(=O)[C@H](CC(=O)O)NC(=O)CNC1=O)C(=O)N2Cc1ccccc1

IC50 (Integrin alpha-V/beta-3): 0.2 nM
SMILES: N=C(N)NCCC[C@@H]1NC(=O)C[C@H]2C(=O)N(Cc3ccccc3)[C@H](CNC(=O)[C@H](CC(=O)O)NC(=O)CNC1=O)C(=O)N2Cc1ccccc1

IC50 (Integrin alpha-V/beta-3): 0.2 nM
SMILES: N=C(N)NCCC[C@@H]1NC(=O)C[C@@H]2C(=O)N(Cc3ccccc3)[C@@H](CNC(=O)[C@H](CC(=O)O)NC(=O)CNC1=O)C(=O)N2Cc1ccccc1 (stereo in doubt; 7b)

SMILES: CC(=O)O[C@H]1C(=O)[C@@]2(C)[C@H]([C@H](OC(=O)c3ccccc3)[C@]3(O)C[C@H](OC(=O)[C@H](OC(=O)CCC(=O)NCc4ccc(CN5C(=O)[C@H]6CC(=O)N[C@@H](CCCNC(=N)N)C(=O)NCC(=O)N[C@@H](CC(=O)O)C(=O)NC[C@H]5C(=O)N6)cc4)[C@@H](NC(=O)c4ccccc4)c4ccccc4)C(C)=C1C3(C)C)[C@]1(OC(C)=O)CO[C@@H]1C[C@@H]2O
Activity (IGROV-1 [1]): Active
Activity (IGROV-1 [2]): Active
Activity (Mus musculus [11]): 0%
Activity (Mus musculus [3]): 3%
LCK [12]: 0.3
LCK [4]: 1.4
Activity (IGROV-1 [5]): Active
Activity (IGROV-1 [13]): Active
inhibition in vivo at 15 mg/kg [14]: 64%
inhibition in vivo at 30 mg/kg [6]: 85%
growth inhibition (GI) [7]: Non-toxic
IC50 (MIA PaCa-2): 2.3 nM
IC50 (PANC-1): 2.4 nM
IC50 (SK-OV-3): 1.2 nM
IC50 (U2OS): 12.8 nM
IC50 (IGROV-1 [8]): 4.9 nM
IC50 (IGROV-1 [9]): 61.3 nM
Ratio IC50 [10]: 20
IC50 (Integrin alpha-V/beta-5): 219 nM
IC50 (Integrin alpha-V/beta-3): 5.2 nM
half-life at 10 µM [15]: 2.38 h
half-life at 10 µM [16]: 2.75 h
solubility [17]: soluble
solubility [18]: Insoluble
Stability [19]: Stable
Stability [20]: Unstable

SMILES: N=C(N)NCCC[C@@H]1NC(=O)C[C@@H]2NC(=O)[C@@H](CNC(=O)[C@H](CC(=O)O)NC(=O)CNC1=O)N(Cc1ccccc1)C2=O
Ratio IC50 [10]: 20
IC50 (Integrin alpha-V/beta-5): 114 nM
IC50 (Integrin alpha-V/beta-3): 3.2 nM

half-life [21]: 2 h
SMILES: CC(=O)O[C@H]1C(=O)[C@@]2(C)[C@H]([C@H](OC(=O)c3ccccc3)[C@]3(O)C[C@H](OC(=O)[C@H](OC(=O)CCC(=O)N[C@@H](CCC(=O)NCCCC[C@@H]4NC(=O)[C@@H](Cc5ccccc5)NC(=O)[C@H](CC(=O)O)NC(=O)CNC(=O)[C@H](CCCNC(=N)N)NC4=O)C(=O)NCCCC[C@@H]4NC(=O)[C@@H](Cc5ccccc5)NC(=O)[C@H](CC(=O)O)NC(=O)CNC(=O)[C@H](CCCNC(=N)N)NC4=O)[C@@H](NC(=O)c4ccccc4)c4ccccc4)C(C)=C1C3(C)C)[C@]1(OC(C)=O)CO[C@@H]1C[C@@H]2O
